Measured values reported in patent US7714014B2, “Targeting GLI proteins in human cancer by small molecules” (The Regents of the University of California, priority 2005, dated 2010).

Legend:
[1] = tested on: HT29 (colon cancer); assay: Apoptosis analysis (Annexin V FITC, flow cytometry); assay type: cell-based, human; details: for % of apoptotic cells: about 3 days
Method: Apoptosis was analyzed by using an Annexin V FITC Apoptosis Detection Kit (Biosource, Camarillo, Calif.), according to the manufacturer's protocol. After treatment with different small molecule compounds at various concentrations for about 3 days, cells were harvested by trypsinization, stained and immediately analyzed by flow cytometry (FACScan; Decton Dickinson, Franklin Lake, N.J.). Early apoptotic cells with exposed phosphatidylserine but intact cell membranes will bind to Annexin V-FITC, but not propidium iodide (PI). Cells in necrotic or late apoptotic stages will be labeled with both Annexin V-FITC and PI. “% apoptotic cells” or “% apoptosis” refers to the combined early and late apoptotic cells.
Flow cytometry was used to examine apoptosis in colon cancer cell line HT29 after treatment of cells with small molecule compounds FN1-5 and FN1-8. While FN1-5 induced apoptosis in HT29 cells (at 50 μM 35% apoptotic cells were observed; Table 2), no apoptosis was observed after treatment with FN1-8 (Table 3).

[2] = tested on: melanoma cell line LOX; assay: Cell survival assay (crystal violet); assay type: cell-based, human; details: for cell killing effect: 3 days
Method: (§1) Typically, the small molecule compounds of the present invention were dissolved in DMSO at a concentration of 30 mM. The small molecule compounds were then tested under cell culture conditions at different concentrations ranging from 0, 10, 30, 50, to 100 uM. To determine cell survival after treatment, the cells were incubated with the small molecule compounds in 6-well plates for about 3 days. After removal of the cell culture medium, 1-ml of 0.5% crystal violet solution (prepared in 20% ethanol and 20% methanol) was added to stain the cells for 5 min. Then the crystal violet solution was rinsed clean with tap water. Cell survival was estimated based on the density of crystal stained plates.
The effect of small molecule compounds FN1-5, FN1-8, FN1-7, FN1-9U, and FN1-9S was tested using a cytotoxicity assay and the melanoma cell line LOX. LOX cells were plated in 6-well plates and incubated with 100 μM of each compound (stocks were dissolved in DMSO at 30 mM) for 3 days, as described herein. […] Live cells were stained by 0.5% crystal violet.
Cell killing was also tested using human melanoma cell line LOX and different doses of the small molecule compounds FN1-5 and FN1-8. LOX cells were plated in 6-well plates and incubated with 10, 30, and 50 μM of each compound for 3 days, as described herein.

[3] = tested on: human renal cell carcinoma cell lines 786-O, Caki, and OMRC3; assay: Cell survival assay (crystal violet); assay type: cell-based; details: for cell killing: 50 μM
Method: as §1
The cell-based cytotoxicity assay described herein was used to determine the effect of small molecule compounds FN1-5 and FN1-8 in the human renal cell carcinoma cell lines 786-O, Caki, and OMRC3. Viability of these cells was analyzed after treatment with 10, 30 and 50 μM FN1-5 or FN1-8.

[4] = tested on: human esophageal cancer cell lines SEG-1, TE-7, BIC-1, and OE21; assay: Cell survival assay (crystal violet); assay type: cell-based; details: for cell killing: 50 μM
Method: as §1
The cell-based cytotoxicity assay described herein was used to determine the effect of small molecule compounds FN1-5 and FN1-8 in the human esophageal cancer cell lines SEG-1, TE-7, BIC-1, and OE21. Viability of these cells was analyzed after treatment with 10, 30 and 50 μM FN1-5 or FN1-8.

[5] = tested on: Hedgehog (Hh) signaling pathway (Ptch1, Gli1) in NSCLC cell lines H460 and A549; assay: Semi-quantitative RT-PCR of Hedgehog pathway genes; assay type: cell-based, human; details: for expression of Hh pathway key components and direct target genes (Ptch1, Gli1): 30 μM, 2 days, data not shown
Method: Total RNA from cell lines or tissue samples was isolated using Qiagen RNeasy Mini Kit (Valencia, Calif.). RT-PCR was performed in GeneAmp PCR system 2700 (Applied Biosystems, Foster City, Calif.) using One-step RT-PCR Kit from Invitrogen Life Technologies (Carlsbad, Calif.). Primers for RT-PCR were obtained from Operon Technologies Inc. (Alameda, Calif.). Primer sequences for amplifying different genes in Hedgehog and Wnt signaling pathways are listed in the table below (Table 1; F, forward primer; R, reverse primer). The expected size of the PCR product is indicated for each primer pair. GAPDH was used as internal control.
To further examine the mechanism of action of the small molecule compounds of the present invention, the effect of compounds FN1-5 and FN1-8 on the Hedgehog (Hh) signaling pathway was examined in NSCLC cell lines H460 and A549. H460 and A549 cells were incubated with 30 μM of each compound (FN1-5 or FN1-8) for 2 days before isolation of total RNA that was used for semi-quantitative RT-PCR analysis. […] GAPDH served as a control.

| Structure (SMILES) | % of apoptotic cells ([1]; HT29, 10 μM) | % of apoptotic cells ([1]; HT29, 30 μM) | % of apoptotic cells ([1]; HT29, 50 μM) | cell killing effect ([2]; 50 μM) | cell killing effect ([2]; 100 μM) | cell killing [3] | cell killing [4] | expression of Hh pathway key components and direct target genes (Ptch1, Gli1) [5] | apoptosis induction ([1]; HT29, flow cytometry) | cell killing potency compared with FN1-5 ([2]; compared at 30 μM) | cell killing potency compared with FN1-5 [3] | cell killing potency compared with FN1-5 [4] | inhibitory effect on Hh and Wnt pathways compared with FN1-5 [5] |
| --- | --- | --- | --- | --- | --- | --- | --- | --- | --- | --- | --- | --- | --- |
| O=C(NCCCCCO)C1C(c2ccccc2)=NN(c2ccccc2)C1c1ccccc1 (centres unmarked) [FN1-5, N-(5-Hydroxypentyl)-1,3,5-triphenyl-4,5-dihydro-pyrazole-4-carboxyamide] | 5.8% | 15.5% | 32.9% | Dramatic cell killing effect | dramatic cell killing effect | dramatic cell killing | dramatic cell killing | downregulated | – | – | – | – | – |
| O=C(NCCc1ccc(O)cc1)C1C(c2ccccc2)=NN(c2ccccc2)C1c1ccccc1 (centres unmarked) [FN1-8, N-(2-(4-Hydroxyphenyl)ethyl)-1,3,5-triphenyl-4,5-dihydro-pyrazole-4-carboxyamide] | – | 3.1% | 5.3% | Dramatic cell killing effect | dramatic cell killing effect | dramatic cell killing | dramatic cell killing | downregulated | no apoptosis | more potent than FN1-5 | more potent | more potent | more inhibitory effect |
